{
  "source": "paper PMC3804352",
  "about": "(ACS medicinal chemistry letters, 2013)",
  "key": {"[1]": {"conditions": "cited from earlier work"}, "[2]": {"conditions": "in vivo, iv; cited from earlier work"}, "[3]": {"conditions": "in mice; cited from earlier work"}, "P. falciparum": {"tested_on": "P. falciparum", "conditions": "read-out: in vitro IC50; cited from earlier work"}, "parasitemia": {"tested_on": "parasitemia", "conditions": "cited from earlier work"}, "[4]": {"experiment": "Stability in mouse serum at 37 °C", "format": "in vitro ADME"}, "mice": {"tested_on": "mice", "experiment": "Toxicity to mice in efficacy and PK studies", "format": "in vivo", "conditions": "dosing regime of efficacy study (5-10 mg/kg once daily) and PK study"}, "[5]": {"experiment": "In vivo pharmacokinetic study, single IV or IP injection to healthy mice"}, "[6]": {"experiment": "Metabolism by human liver S9 fraction", "format": "in vitro ADME"}, "[7]": {"experiment": "Stability in human liver cytosolic fraction", "format": "in vitro ADME", "conditions": "r^2 = 0.24, p = 0.10"}, "human cancer cells": {"tested_on": "human cancer cells", "conditions": "cited from earlier work"}, "Plasmodium yoelii": {"tested_on": "Plasmodium yoelii", "experiment": "In vivo efficacy in mice infected with Plasmodium yoelii, parasite load by FACS", "set-up": "species or system Swiss webster female mice"}, "[8]": {"experiment": "Solubility in aqueous buffers", "format": "physicochemical"}, "[9]": {"format": "in vivo, mice", "conditions": "at the termination of efficacy trials"}, "[10]": {"experiment": "Metabolism by human liver microsomes", "format": "in vitro ADME"}},
  "note": "“Also recorded” adds a separate entry of the source. Like-named read-outs stand apart in the source and are kept apart here.",
  "data": [
    {"compound": "CCN(CC)CCCC(C)Nc1ccnc2cc(Cl)ccc12", "note": "(centres unmarked) [chloroquine]", "values": [
      {"measurement": "apparent volume of distribution", "setting": "[1]", "value": 200, "unit": "L/kg"}
    ]},
    {"compound": "C[C@H]1[C@H](OC(=O)CCC(=O)O)O[C@@H]2O[C@@]3(C)CC[C@H]4[C@H](C)CC[C@@H]1[C@@]24OO3", "note": "[artesunate]", "values": [
      {"measurement": "half-life", "setting": "[2]", "value": "less than 10 min"}
    ]},
    {"compound": "C[C@H]1Cc2c([nH]c3cc(Cl)c(F)cc23)[C@@]2(N1)C(=O)Nc1ccc(Cl)cc12", "note": "[NITD609, spirotetrahydro-β-carboline NITD609]", "values": [
      {"measurement": "clearance rate", "setting": "[3]", "value": 9.8, "unit": "mL/min/kg"}
    ]},
    {"compound": "CC[C@H](C)C(=O)O[C@@H]1[C@H]2C(C)=CC(=O)[C@@H](O)[C@]2(C)[C@H]2[C@@H](O)[C@H](O)[C@@]3(C)OC[C@@]24[C@@H]1OC(=O)[C@H](OC(=O)[C@@H](C)CC)[C@@H]34", "note": "[simalikalactone E]", "values": [
      {"measurement": "IC50", "setting": "P. falciparum", "value": "24 to 68", "unit": "nM"},
      {"measurement": "reduction of parasitemia in vivo", "setting": "parasitemia; 0.5 mg/kg IP dosing", "value": 50, "unit": "%"},
      {"measurement": "reduction of parasitemia in vivo", "setting": "parasitemia; 1 mg/kg oral dosing", "value": 50, "unit": "%"}
    ]},
    {"compound": "CC1=C2Cc3cc(ccc3O)C(=O)O[C@H](C(C)(C)Br)CC[C@](C)(O)[C@H](Br)CC[C@]2(C)[C@@H](Br)CC1", "note": "[compound 1, bromophycolide A]", "values": [
      {"measurement": "loss after incubation in mouse serum", "setting": "[4]; 37 °C, 24 h (r^2 = 0.20, p=0.27)", "value": "no significant loss"},
      {"measurement": "stability in mouse serum", "setting": "[4]; over 24 h", "value": "stable"},
      {"measurement": "toxicity to mice", "setting": "mice", "value": "lack of mouse toxicity; also recorded: non-toxic"},
      {"measurement": "bioavailability", "setting": "[5]; IP vs IV dosing", "value": "good bioavailability"},
      {"measurement": "Cp^0", "setting": "[5]; IV, 23 mg/kg, plasma", "value": "24000 ± 6000", "unit": "ng/mL"},
      {"measurement": "metabolism by human liver sub-cellular fractions", "setting": "[6]; after 4 h", "value": "negligible metabolism"},
      {"measurement": "half-life", "setting": "[6]; human, human liver S9 fraction", "value": "9.5 ± 0.8", "unit": "h"},
      {"measurement": "CLint scaled at 24 h, 10 µM", "setting": "[6]; human, human liver S9 fraction, CLint, S9 fraction with UDPGA", "value": "1.1 ± 0.1", "unit": "mL/min/kg"},
      {"measurement": "stability in the presence of the human liver cytosolic fraction", "setting": "[7]", "value": "stable"},
      {"measurement": "differential selectivity among eukaryotic cell lines", "setting": "human cancer cells", "value": 10, "unit": "fold"},
      {"measurement": "IC50", "setting": "human cancer cells; human cancer cells", "value": "> 6000", "unit": "nM"},
      {"measurement": "parasitemia in treated mice", "setting": "Plasmodium yoelii; after the second dose, 10 mg/kg", "value": "10.0 ± 0.5", "unit": "%"},
      {"measurement": "final parasitemia (FACS)", "setting": "Plasmodium yoelii; dosed at 10 mg/kg, control 32 ± 2 %", "value": "17 ± 4", "unit": "%"},
      {"measurement": "solubility in aqueous buffers", "setting": "[8]", "value": "poor solubility"},
      {"measurement": "concentration in blood and plasma of infected mice", "setting": "[9]", "value": "below the limit of detection"},
      {"measurement": "CLint scaled at 24 h, 10 µM", "setting": "[10]; human, human liver microsomes", "value": "1.6 ± 0.5", "unit": "mL/min/kg"},
      {"measurement": "stability in the presence of human microsomes", "setting": "[10]; summary statement", "value": "moderately stable"}
    ]}
  ]
}
